Tests used:
SARS-CoV-2 M^pro [1] = target: T1, SARS-CoV-2 M^pro (Severe acute respiratory syndrome coronavirus 2, UniProt P0DTD1); type: biochemical; details: versus GC-376
SARS-CoV-2 M^pro [2] = target: T1, SARS-CoV-2 M^pro; experiment: Binding to SARS-CoV-2 M^pro using native mass spectrometry; details: 10 μM ligand, 4 mM DTT
SARS-CoV-2 HM-M^pro = SARS-CoV-2 HM-M^pro (Severe acute respiratory syndrome coronavirus 2, UniProt P0DTD1); type: binding

CC(C)C[C@H](NC(=O)OCc1ccccc1)C(=O)N[C@@H](CC(C)C)C(=O)N[C@@H](CC1CCNC1=O)C(=O)C(=O)NC1CC1 (stereo partly drawn) [UAWJ248]
fold more potent than GC-376 (k2/KI) (SARS-CoV-2 M^pro [1]): 3.2 fold | binding to M^pro by native mass spectrometry (SARS-CoV-2 M^pro [2]): confirmed | ΔTm shift, HM-M^pro construct (SARS-CoV-2 HM-M^pro): 10.01 °C
